ChEMBL document CHEMBL4376854, “Investigation of the Adrenergic and Opioid Binding Affinities, Metabolic Stability, Plasma Protein Binding Properties, and Functional Effects of Selected Indole-Based Kratom Alkaloids” (J Med Chem, 2020)
Active and inactive are the calls of the source. The rule behind the calls is not given here.

Key:
[1] = system: Rattus norvegicus; experiment: Antinociceptive activity in Sprague-Dawley rat dosed intravenously using cumulative dosing every 5 mins until rat maxed-out on hot plate by hot plate test; format: functional; conditions: iv
[2] = system: Rattus norvegicus; experiment: Antinociceptive activity in Sprague-Dawley rat dosed intravenously using cumulative dosing every 5 mins until rat maxed-out on hot plate co-treated with 0.1 mg/kg naltrexone by hot plate test; format: functional, organism-based
[3] = Toxicity in Sprague-Dawley rat assessed as induction of hypothermia at 0.0032 to 10 mg/kg, iv; format: organism-based; conditions: in vivo
[4] = human, microsomes, 1 µM
[5] = Protein binding in human plasma at 1 uM by equilibrium dialysis; format: ADME, cell-free; conditions: read-out: PPB (converted)
[6] = biological target: T1, Delta-type opioid receptor (Homo sapiens, UniProt P41143); experiment: biochemical
[7] = biological target: Kappa-type opioid receptor (Homo sapiens, UniProt P41145); experiment: Displacement of [3H]U69,593 from human recombinant kappa opioid receptor expressed in rat RBL cell membranes incubated for 60 mins
[8] = in vitro; conditions: human, plasma
[9] = biological target: T1, Delta-type opioid receptor; experiment: Displacement of [3H]DADLE from human recombinant delta opioid receptor expressed in rat Chem-1 (RBL) cell membranes at 10000 nM incubated for 60 mins relative to control
[10] = system: Rattus norvegicus; experiment: Antinociceptive activity in Sprague-Dawley rat dosed intravenously using cumulative dosing every 5 mins until rat maxed-out on hot plate by hot plate test relative to control; format: functional
[11] = biological target: T1, Delta-type opioid receptor; experiment: Displacement of [3H]DADLE from human recombinant delta opioid receptor expressed in rat Chem-1 (RBL) cell membranes at 100 nM incubated for 60 mins relative to control
[12] = human, microsomes, 1 h
[13] = biological target: T1, Delta-type opioid receptor; experiment: Antagonist activity at human recombinant delta opioid receptor expressed in rat Chem-1 (RBL) cells assessed as inhibition of DPDPE-induced intracellular calcium levels incubated at room temperature by fluorimetry; format: functional, cell-based
[14] = biological target: Mu-type opioid receptor (Homo sapiens, UniProt P35372); experiment: biochemical
Mu-type opioid receptor, sequence (P35372 whole entry): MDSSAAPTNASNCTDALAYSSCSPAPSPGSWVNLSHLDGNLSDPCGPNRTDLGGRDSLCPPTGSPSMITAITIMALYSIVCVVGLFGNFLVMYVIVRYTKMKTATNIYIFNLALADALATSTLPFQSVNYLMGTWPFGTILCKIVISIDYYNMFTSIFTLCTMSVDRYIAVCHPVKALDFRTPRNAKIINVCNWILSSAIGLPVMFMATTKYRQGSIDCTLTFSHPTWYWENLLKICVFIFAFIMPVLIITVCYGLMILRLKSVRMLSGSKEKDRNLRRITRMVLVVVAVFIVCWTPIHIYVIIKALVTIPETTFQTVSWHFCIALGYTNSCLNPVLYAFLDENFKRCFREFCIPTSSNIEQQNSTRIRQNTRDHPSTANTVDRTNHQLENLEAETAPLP

T1 sequence (P41143 whole entry): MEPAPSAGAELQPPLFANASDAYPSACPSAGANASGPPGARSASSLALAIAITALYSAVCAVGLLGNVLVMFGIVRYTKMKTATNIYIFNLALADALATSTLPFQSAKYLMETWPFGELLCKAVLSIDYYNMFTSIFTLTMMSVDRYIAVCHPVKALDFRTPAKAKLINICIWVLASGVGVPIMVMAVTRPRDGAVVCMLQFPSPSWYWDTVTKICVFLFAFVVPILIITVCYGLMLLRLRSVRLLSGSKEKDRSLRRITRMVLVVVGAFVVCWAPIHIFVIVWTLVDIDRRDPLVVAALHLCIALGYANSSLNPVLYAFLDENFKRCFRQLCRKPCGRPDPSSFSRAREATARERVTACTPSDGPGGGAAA
Kappa-type opioid receptor, sequence (P41145 whole entry): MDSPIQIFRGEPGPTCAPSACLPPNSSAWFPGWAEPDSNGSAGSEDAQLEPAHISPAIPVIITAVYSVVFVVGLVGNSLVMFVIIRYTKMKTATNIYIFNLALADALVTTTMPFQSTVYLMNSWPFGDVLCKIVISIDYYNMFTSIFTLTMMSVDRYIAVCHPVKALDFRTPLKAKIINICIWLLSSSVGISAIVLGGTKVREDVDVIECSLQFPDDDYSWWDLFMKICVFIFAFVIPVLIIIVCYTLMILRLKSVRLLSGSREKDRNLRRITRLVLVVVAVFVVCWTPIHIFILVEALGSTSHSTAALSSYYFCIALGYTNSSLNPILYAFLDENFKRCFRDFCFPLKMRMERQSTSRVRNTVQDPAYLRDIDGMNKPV

SMILES | ED50 [1] | Activity [2] | Activity [3] | Fu [4] | fraction unbound at 1 µM [5] | Ki [6] | Ki [7] | fraction unbound at 1 µM [8] | inhibition [9] | MPE [10] | inhibition [11] | Kel [12] | Kb [13] | Ki [14]
CN1CC[C@]23c4c5ccc(O)c4O[C@H]2[C@@H](O)C=C[C@H]3[C@H]1C5 [MORPHINE] | 5.1 mg/kg | inactive |  |  |  |  |  |  |  |  |  |  |  | 
CC[C@@H]1CN2CC[C@@]3(O)C(=Nc4cccc(OC)c43)[C@@H]2C[C@@H]1/C(=C\OC)C(=O)OC | 1.91 mg/kg | inactive | Non-Toxic | 0.852 | 0.1 | 236 nM | 74.1 nM | 0.1 | 93.7% | 100% | 19.6% | 0.0041 min⁻¹ | 550 nM | 
CC[C@@H]1CN2CCc3c([nH]c4cccc(O)c34)[C@@H]2C[C@@H]1/C(=C\OC)C(=O)OC |  |  |  |  |  |  |  |  |  |  |  |  |  | 105 nM
